From patent US20140179681A1, “METHODS AND COMPOSITIONS OF TARGETED DRUG DEVELOPMENT” (priority 2010, published 2014)
Counter-ions that a name gives are not always drawn. Like-named read-outs stand apart in the source and are kept apart here.

Experiments:
[1] = test system: epithelial carcinoma A431 cell line; test: MTT Cell Proliferation Assay, A431 cells; format: cell-based; conditions: for MTT Assay IC50(A431/MDBK): ratio in parentheses: ratio MDBK IC50 / A431 IC50 (selectivity); for MTT Assay IC50(A431/MDBK): A431: A431 cells; for MTT assay, % at 2.6 microMolar: cell line not stated
Source text: (§1) The following example describes the MTT Cell Proliferation Assay.
(§2) The MTT Cell Proliferation Assay is a colorimetric assay system that measures the reduction of the tetrazolium salt MTT (3-(4,5-dimethylthiazol-2-yl)-2,5-diphenyltetrazolium bromide) into insoluble formazan crystals, produced by the mitochondria of viable cells. […] The color can then be quantified by spectrophotometric means. Among the applications for the method are drug sensitivity, cytotoxicity, response to growth factors, and cell activation. The reduction of tetrazolium salts is now recognized as a safe, accurate alternative to radiometric testing.
(§3) Two replicates on each cell plate and 2 duplicate plates gave 4 individual replicates of each concentration, in each cell line. Concentrations were diluted in 100% DMSO from 25 mM stocks.
(§4) Twelve 96 well plates of each cell line were plated. Plating was done by dislodging cells as in passage protocol, counting on a hemocytometer, re-suspending in standard growth media, and plating using a multichannel pippetor.
(§5) 16 μl of 25 mM stock+34 μl DMSO=8 mM starting concentrations, and serial diluted as with test compounds in same plate. […] Two replicates of each concentrations was run on each cell plate. All compound addition and cell treatments were done using aseptic technique under a laminar flow aseptic hood.
(§6) Control: 0.5% DMSO in treatment media was used as the control.
(§7) MTT dye (Thiazolyl Blue Tetrazolium Bromide, Sigma cat #M5655) stock was prepared in bulk and stored at 4° C. for use: 5 mgs/ml sterile PDS, shielded from light. 4 ul of this stock per 100 uls treatment media per well was used.
(§8) Plates were incubated overnight prior to treatment, with treatment day=Day 0. Compound treatments were prepared prior to washing cells to minimize time cells were dry at room temperature after final aspiration. Compounds were diluted in 100% DMSO in 96 well polypropylene plates: 40 μl 25 mM stock+10 μl DMSO=20 mM; 20 μl of 20 mM+30 μl DMSO=8 mM; 20 μl of 8 mM+30 μl DMSO=3.2 mM; 20 μl of 3.2 mM+30 μl DMSO=1.3 mM; 20 μl of 1.3 mM+30 μl DMSO=0.51 mM.
(§9) 5.0 μl/ml were added to treatment media, in sterile, 2.2 ml deep well plates=0.5% dmso final. Ten μl of each dmso concentration was added to 2.0 ml of treatment media and then mixed using a 1200 μl multichannel pipettor. Cell plates were treated from the deep well plates. Treatment media was standard growth media containing 0.5% FBS and standard additions. This reduced FBS concentration allowed for a slower growth rate in cells.
(§10) Media was aspirated from cell plates, and washed with 200 μl/well sterile PBS. Aspirated PBS wash, and cell plates were treated with 200 μl of compound/treatment media per well, and incubated at 37° C., 5% CO2 for 3 days.
(§11) Prior to harvesting, visual observations were made under an inverted microscope. Plates were harvested by: aspirating the growth media; adding back MTT dye/100 μl treatment media; and incubating plates at 37° C. for 1 hour. MTT dye was aspirated. 100 μl/well dmso was added, and then shaken on a Bellco plate shaker for 5 minutes, at 4.5 setting.
(§12) Plates were read in a Tecan Sunrize UV plate reader, at 560 nm. Settings: Read mode, Outside Normal 2 sec; Shake settle time 3 sec. Data is reported as % inhibition, calculated for individual plates using control values from that plate.

[2] = test system: MDBK line; test: MTT Cell Proliferation Assay, MDBK cells; format: cell-based, bovine; conditions: Bos taurus, MDBK, MDBK cells, second value of cell; read-out: MTT Assay IC50(A431/MDBK): MDBK
Source text: as §1, §2, §3, §4, §5, §6, §7, §8, §9, §10, §11, §12

[3] = biological target: T1, EGFR (Homo sapiens, UniProt P00533); test: EGFR in-cell Western (ICW) screening protocol (EGFR inhibition assay); format: cell-based; parameters: ICW 1 / ICW 2 / ICW Avg: unit not given here; conditions: for ICW Avg / ICW 1 / ICW 2: ICW assay; for ICW Avg: average of runs 1 and 2; for ICW 1: run 1; for ICW 2: run 2; for ICW assay: Table 10, % Inhibition of EGF dependent EGFR phosphorylation in A431 cells, compound 125 μM in assay
T1 construct: host or cells: A431
Procedure: The following example describes general EGFR in-cell Western (ICW) screening protocol. Methods are according to Chen et al. (2005) Analytical Biochemistry 338, 136-142 (incorporated herein by reference), except as otherwise noted.
Cell Plates: A431 cells (ATCC # CRL-1555) were grown in Dulbecco's Modified Eagle Medium (DMEM; ATCC #30-2002) supplemented with 10% fetal bovine serum, 105 units/ml pen/strep (Invitrogen #15140155) and 2.1 mM L-glutamine (ATCC #30-2214). Cells were seeded into 96 well tissue culture plates (BD Falcon #353948) at a density of 30,000 cells per well and incubated at 37° C. with 5% CO2 overnight. Two cell plates were prepared for each compound plate.
Serum Starvation: The cells were serum starved prior to compound addition. The media was removed by aspiration and the cells washed with PBS (200 μl/well; Invitrogen #20012-027). The PBS was removed by aspiration and replaced with 200 μl of DMEM (ATCC #30-2002) supplemented with 105 units/ml pen/strep (Invitrogen #15140155) and 2.1 mM 1-glutamine (ATCC #30-2214). The cell plates were incubated at 37° C./5% CO2 for 2 hours.
Compound Plate Preparation: The test compounds were solvated in 100% DMSO (Sigma #472301-2L) at a concentration of 25 mM. Compounds found not to be completely soluble in 100% DMSO at 25 mM were diluted to 10 mM with 100% DMSO and TFA (Fluka #91699) added to a final concentration of 0.2%. 40 μl of test compound was added to the appropriate well of a 96 well plate (Falcon #351190). As controls, 6 μM EGFR kinase inhibitor PD168393 (EMD/Calbiochem #513033) in 100% DMSO and DMSO alone were added to various wells. Prepared compound plates were stored at RT prior to use and at 4° C. long term.
Compound Dilution Plate Preparation: 250 μl of DMEM supplemented with 1 mg/ml BSA (Sigma A3059-10G) was added to the appropriate wells of a 96 well plate to prepare the compound dilution plates. Using a multichannel pipettor, 1.25 μl of compound from the compound plate was transferred into the compound dilution plate.
Compound Addition: The starve media was removed from the cell plates by aspiration. Using a multichannel pipettor, the compound dilution plates were mixed by pipetting up and down three times. 50 μl of mixed, diluted compound was added to each of two rows/columns on each of two cell plates. The cell plates with compound were incubated at 37° C./5% CO2 for 4 hours.
EGF Addition: 20 ng/ml EGF (Upstate #01-107) was prepared in DMEM supplemented with 1 mg/ml BSA. 50 μl of 20 or 0 ng/ml EGF was added to the appropriate wells without the removal of compound. The compound and EGF were mixed by pipetting up and down three times. The plates were incubated at 37° C./5% CO2 for 10 min. In some screening assays the final concentration of EGF used for simulation was 6.6, or 12.5 ng/ml rather than 10 ng/ml.
Fixation and Triton Washing: The EGF+compound was removed by aspiration and 150 μl of freshly prepared Fixation Solution (1×PBS, Sigma P3813-10PK, and 4% Formaldehyde, Pierce #28908) was immediately added. The plates were incubated at RT for 20 min without shaking. The Fixation Solution was removed by aspiration and the plates washed four times with 200 μl each of Triton Wash Solution (1×PBS, Sigma P3813-10PK, and 0.1% Triton X-100, T8787-50ML) for 5 min with gentle shaking.
Blocking and Probing: Following the last Triton Wash, the plates were blocked for 1.5 h at RT with shaking using 150 μl of Odyssey Blocking Buffer (LI-COR #927-40000). The block was removed by aspiration and 50 μl of diluted primary Ab mix was added. The plates were incubated at 4° C. overnight with gentle shaking. The plates were washed five times with 200 μl of PBST (1×PBS, Sigma P3813-10PK, and 0.1% Tween-20, Sigma P9416-50ML) for 5 min each with shaking 50 μl of diluted secondary Ab mix was added and the plates incubated at RT for 1 h with shaking. The plates were washed 5× with 200 μl of PBST for 5 min each with shaking. […]

[4] = Homo sapiens, A-431, A431 cells, first value of cell, read-out: MTT Assay IC50(A431/MDBK): A431
[5] = first value of 'a/b (c)', taken as A431 cells

T1 sequence (P00533 25-1210): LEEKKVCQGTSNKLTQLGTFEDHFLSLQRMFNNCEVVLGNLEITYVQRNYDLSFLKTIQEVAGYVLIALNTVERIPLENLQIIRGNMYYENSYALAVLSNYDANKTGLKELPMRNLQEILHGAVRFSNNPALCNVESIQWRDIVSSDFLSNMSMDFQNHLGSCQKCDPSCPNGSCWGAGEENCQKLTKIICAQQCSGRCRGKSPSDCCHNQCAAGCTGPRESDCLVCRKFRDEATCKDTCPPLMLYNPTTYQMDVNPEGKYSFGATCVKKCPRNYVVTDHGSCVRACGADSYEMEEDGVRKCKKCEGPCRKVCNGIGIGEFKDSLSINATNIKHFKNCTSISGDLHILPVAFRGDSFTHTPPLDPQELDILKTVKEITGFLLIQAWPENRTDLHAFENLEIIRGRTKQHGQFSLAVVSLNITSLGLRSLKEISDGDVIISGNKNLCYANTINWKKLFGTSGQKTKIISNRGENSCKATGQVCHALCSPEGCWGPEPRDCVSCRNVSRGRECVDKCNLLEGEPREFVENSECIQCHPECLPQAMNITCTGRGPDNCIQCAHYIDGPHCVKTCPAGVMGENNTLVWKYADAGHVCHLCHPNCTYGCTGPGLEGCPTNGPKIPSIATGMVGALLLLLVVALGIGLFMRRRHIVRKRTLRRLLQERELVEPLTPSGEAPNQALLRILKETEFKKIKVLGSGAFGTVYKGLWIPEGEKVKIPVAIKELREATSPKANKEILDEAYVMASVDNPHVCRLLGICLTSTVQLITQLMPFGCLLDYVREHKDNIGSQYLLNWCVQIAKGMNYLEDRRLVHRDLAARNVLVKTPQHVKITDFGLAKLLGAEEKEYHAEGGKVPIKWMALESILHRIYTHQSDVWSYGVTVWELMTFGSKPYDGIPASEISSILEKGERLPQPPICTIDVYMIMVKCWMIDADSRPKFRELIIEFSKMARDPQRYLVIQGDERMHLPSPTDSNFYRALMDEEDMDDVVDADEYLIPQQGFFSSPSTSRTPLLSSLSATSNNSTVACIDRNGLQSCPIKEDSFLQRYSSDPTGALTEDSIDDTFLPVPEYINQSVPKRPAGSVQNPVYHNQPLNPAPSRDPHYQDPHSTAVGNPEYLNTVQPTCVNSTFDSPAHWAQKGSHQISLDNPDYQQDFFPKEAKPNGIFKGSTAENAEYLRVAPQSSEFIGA

Compound	ICW Avg [3]	ICW 1 [3]	ICW 2 [3]	MTT Assay IC50(A431/MDBK): A431 ([1]; first value of cell)	ICW Screen (ICW Inhibition) [3]	also measured
Cc1ccc2c(C)nc(Nc3nc(-c4ccccc4)cc(=O)[nH]3)nc2c1 [10381 + TFA]	82.76	87.04	78.48			IC50 [1, 4]: 2.1 µM; MTT Assay IC50(A431/MDBK): ratio in parentheses [1]: 1.43; IC50 [2]: 3.01 µM
CCc1ccc2nc(Nc3nc(=O)cc(CSc4nc5ccccc5s4)[nH]3)nc(C)c2c1 [11300 + TFA]	25.61	25.11	26.12			IC50 [1, 4]: 26.3 µM; MTT Assay IC50(A431/MDBK): ratio in parentheses [1]: 0.30; IC50 [2]: 7.95 µM
COc1ccc(C2CC(=O)c3cnc(Nc4nc(-c5ccccc5)c5ccccc5n4)nc3C2)cc1 (centres unmarked) [11663 + TFA]	26.73	31.73	21.73	non-convergent		
Cc1ccc(C2CC(=O)c3cnc(Nc4nc(C)c5cccc(C)c5n4)nc3C2)cc1 (centres unmarked) [11673 + TFA]	25.35	33.30	17.39	non-convergent		
Cc1ccc2c(C)nc(Nc3nc(C)cc(=O)[nH]3)nc2c1 [11725 + TFA]	28.93	26.65	31.20			IC50 [1, 4]: 13 µM
Cc1cc(C)c2nc(Nc3nc(CSc4ccc(Cl)cc4)cc(=O)[nH]3)nc(C)c2c1 [11726 + TFA]	30.87	35.72	26.02	NOT ACTIVE		
CCOc1cccc2c(C)nc(Nc3nc(C)c(Cc4ccc(C)cc4)c(=O)[nH]3)nc12 [11753 + TFA]	44.86	42.44	47.28	NOT ACTIVE		
CC(C)C(=O)NC(=S)Nc1ccc(S(=O)(=O)N2CCCC2)cc1 [AD4-11970]					43.246	MTT Screen, first value of cell [1, 5]: non- conver- gent
CC(C)C(=O)NC(=S)Nc1ccc(S(=O)(=O)N(C)c2ccccc2)cc1 [AD4-12042]					34.592	MTT Screen, first value of cell [1, 5]: non- conver- gent
COC(=O)CCC(=O)NC(=S)Nc1ccc(S(=O)(=O)Nc2cc(C)cc(C)c2)cc1 [AD4-12093]					29.436	MTT Screen, first value of cell [1, 5]: non- conver- gent
CN(c1ccccc1)S(=O)(=O)c1ccc(NC(=S)NC(=O)C2CC2)cc1 [AD4-12164]					45.64	IC50 ([1]; Homo sapiens, A-431, first value of 'a/b (c)', taken as A431 cells, read-out: MTT Screen, first value of cell): 50.6 µM; IC50 ([1]; first value of 'a/b (c)', taken as A431 cells, read-out: MTT Screen, first value of cell): 51.4 µM
O=S(=O)(c1ccc(NC(=S)Nc2cccc(C(F)(F)F)c2)cc1)N1CCc2ccccc21 [AD4-12239]						MTT assay, % at 2.6 microMolar ([1]; Table 10): 58%; ICW assay [3]: 67.8291
CCCC(=O)NC(=S)Nc1ccc(S(=O)(=O)Nc2cc(C)on2)cc1 [AD4-12267]					30.36	MTT Screen, first value of cell [1, 5]: non- conver- gent
CN(c1ccccc1)S(=O)(=O)c1ccc(NC(=S)NC(=O)/C=C/c2cccs2)cc1 [AD4-12288]					35.584	MTT Screen, first value of cell [1, 5]: non- conver- gent
Cc1cc(C)c2nc(NC3=NC(c4ccccc4)CC(=O)N3)nc(C)c2c1 (centres unmarked) [AD4-12641 + TFA]	72.20	70.26	74.15	NOT ACTIVE		
CCCc1cc(=O)[nH]c(Nc2nc(C)c3ccc(OC)cc3n2)n1 [AD4-12652 + TFA]	73.45	82.35	64.55	NOT ACTIVE		
Cc1ccc(C)c(NC(=S)Nc2ccc(S(=O)(=O)N3c4ccc(F)cc4CCC3C)cc2)c1 (centres unmarked) [AD4-12824]						MTT assay (first value) ([1]; Table 10, first of x/y(ratio): A431, three day treatment, unit not printed (doses in μM)): Not Active; ICW assay [3]: 25.9501
CC1CCc2cc(F)ccc2N1S(=O)(=O)c1ccc(NC(=S)Nc2cc(Cl)cc(Cl)c2)cc1 (centres unmarked) [AD4-12843]						MTT assay, % at 2.6 microMolar ([1]; Table 10): 74%; ICW assay [3]: 43.3347
CC1CCc2cc(F)ccc2N1S(=O)(=O)c1ccc(NC(=S)Nc2cccc(C(F)(F)F)c2)cc1 (centres unmarked) [AD4-12846]						MTT assay, % at 2.6 microMolar ([1]; Table 10): 71%; ICW assay [3]: 71.4924
CCOc1cccc2c(C)nc(Nc3nc(-c4ccccc4)cc(=O)[nH]3)nc12 [compound 11492]	62.29	53.35	71.23	non-convergent		
